Literature values as cited in publication PMC12854702 (Synlett : accounts and rapid communications in synthetic …, 2025).

Assays:
[1] = test system: serotonin 5-HT2A receptor
human SLACK = conditions: Tl+-flux, HEK-293 cells stably expressing human SLACK

CN1CCN(C2=Nc3ccccc3Oc3ccc(Cl)cc32)CC1 [loxapine]
antagonism of serotonin 5-HT2A receptor [1]: potent antagonist | antagonism of histamine H1 receptor (histamine H1 receptor): potent antagonist | SLACK activation Emax (human SLACK): 100% | antagonism of dopamine D2 receptor (dopamine D2 receptor): potent antagonist
